From patent US9120787B2, “HIV replication inhibitors” (priority 2011, dated 2015)
Values joined by “and” are separate entries in the source; they are usually repeats but may differ in a detail not shown here. Equal entries are not always repeated. Where two headings read alike, the source gives them in different places.

What was measured:
[1] = Cytotoxicity by MTS staining in PBMCs; format: cell-based; details: human, peripheral blood mononuclear cells (PBMC), read-out: TC50
Method: (§1) Cytotoxicity was assessed by MTS staining. At assay end-point, PBMC were stained with the addition of […] of the soluble tetrazolium-based dye MTS to determine cell viability and quantify compound toxicity. The plates were incubated 4 to 6 hrs at 37° C. Following incubation, the activity was assessed by reading absorbance values at 490/650 nm.

HIV-1Ba-L [2] = experiment: HIV-1Ba-L replication in PBMCs (supernatant RT end-point)
Method in brief: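 Pooled PHA-stimulated human PBMCs (5×10^4 cells/well) were infected with HIV-1Ba-L at MOI 0.1 with nine ½-log compound dilutions and cultured seven days at 37° C. Supernatant RT activity was measured by ^3H-TTP incorporation on poly rA:oligo dT (60 minutes, 37° C) and counted by scintillation.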

HIV-1 K103N, Y181C (A17) = HIV-1 K103N, Y181C (A17) replication in PBMCs; format: cell-based; details: for IC50: Human immunodeficiency virus 1, PBMC; for TI (TC50/IC50): Virus A17 (K103N, Y181C) in PBMCs; for effect of RT changes K103N and Y181C on anti-viral activity: virus with K103 to Asparagine and Y181 to cysteine
Text: In another embodiment of the present disclosure compounds are provided which inhibit the replication of HIV strains resistant to NNRTIs. Compounds in this disclosure inhibit, A17, an HIV-1 virus with mutations in the RT non-nucleoside binding pocket, K103N and Y181C, in a dose-dependent susceptibility testing manner.
The asparagine variation at residue 103 and the cysteine variation at residue 181 are known to inhibit the activity of the NNRTI's.
Evaluation Dihydropyrimidines vs. HIV-1Ba-L and HIV-1 K103N, Y181C in PBMCs

HIV-1Ba-L [3] = experiment: Inhibition of virus replication in MAGI-CCR5 cells (β-galactosidase reporter); format: cell-based; details: HIV-1Ba-L in MAGI-CCR5 cells; for IC50: 48 hours, β-galactosidase reporter expression, read-out: IC50
Method in brief: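 HeLa-derived MAGI-CCR5 cells (high CD4/CCR5, HIV-1 LTR-driven β-galactosidase) plated at 1.0×10^4 cells/well the day before infection with HIV-1Ba-L. Compounds tested at six concentrations in triplicate, with parallel uninfected plates for cytotoxicity.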

[4] = Cytotoxicity by MTS staining in uninfected MAGI-CCR5 cells; format: cell-based; details: human, read-out: TC50
Method in brief: (§2)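 Uninfected MAGI-CCR5 cells (HeLa-CD4-LTR-β-gal derived, expressing CD4/CCR5) plated at 1.0×10^4 cells/well the day before, then exposed to compounds at six concentrations in triplicate alongside parallel infected assays. Viability read by MTS staining.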

MAGI-CCR5 cells = experiment: as above; format: cell-based; details: 48 hours, read-out: TC50 (the source's name)
Method in brief: as §2

[5] = molecular target: T1, recombinant HIVNL4-3 heterodimeric (p66/p51) Reverse Transcriptase (Human immunodeficiency virus type 1 group M subtype B, UniProt P12497); experiment: Biochemical reverse transcriptase assay; parameters: species or system HIV-1; details: 5'LTR template/primer
T1 construct: Purified recombinant HIVNL4-3 heterodimeric (p66/p51) Reverse Transcriptase (RT)
Method: Enantiomers of Example 34 were created and utilized to assess the activity of the compounds in a biochemical reverse transcriptase assay. Purified recombinant HIVNL4-3 heterodimeric (p66/p51) Reverse Transcriptase (RT) was used in experiments. RT activity was determined by the incorporation of radiolabeled deoxyribonucleotides into the newly synthesized DNA strand. The standard RT reaction mixture contained a synthetic homopolymeric template/primer [poly(rA)/oligo(dT)] or in vitro transcribed viral RNA derived from the HIV-1NL4-3 5′-LTR region (nucleotide residues 454 to 652) and a primer complementary to the primer binding site (PBS, nucleotide residues 636 to 652), radiolabeled deoxyribonucleotide, dNTPs and RT. The reaction was carried out in a volume of 40 μl containing 50 mM Tris HCl, pH 7.8, 50 mM KCl, 5 mM MgCl2, 1 mM DTT, 50 μM each of dATP, dCTP, dGTP, 50 nM dTTP, 1 μCi of [^3H] dTTP (70-90 Ci/mM) and 5 nM template/primer. The reaction was initiated by the addition of 10 nM RT. For compound screening, serially diluted test articles were added to the reaction followed by the addition of RT. The reaction mixture was incubated at 37° C. for 1 h, then quenched by the addition of ice-cold trichloroacetic acid (TCA) to the final concentration of 10%. The plate was incubated at 4° C. for 1 h to precipitate the synthesized DNA, then rinsed 3-times with 10% TCA and 1 time with 70% ethanol. After addition of 25 μl scintillation fluid to completely dried wells, radioactivity is counted by MicroBeta scintillation counter. The reduction of radioactivity represents the potency of compound inhibition.

[6] = tested on: peripheral blood mononuclear cells (PBMC); experiment: Cytotoxicity by MTS staining in PBMCs; format: cell-based; details: MTS staining, read-out: TC50 (the source's name)
Method: as §1

[7] = Human immunodeficiency virus 1, BAL, PBMC
[8] = Human immunodeficiency virus 1, PBMC, 168 h
[9] = Virus Ba-L in PBMCs (Ba-L vs A17 comparison)
[10] = 5'LTR/dPR IC50, HIV RT biochemical assay

| Compound | CC50 at 7 days ([1]; A17 line of the table) | CC50 at 7 days ([1]; Ba-L line of the table) | CC50 at 7 days ([1]; MTS staining) | TI (TC50/IC50) (HIV-1Ba-L [2]; HIV-1Ba-L in PBMCs) | IC50 (HIV-1Ba-L [2]; [7]) | IC50 (HIV-1Ba-L [2]; [8]) | TI (TC50/IC50) (HIV-1Ba-L [2]; [9]) | IC50 (HIV-1 K103N, Y181C (A17)) | TI (TC50/IC50) (HIV-1 K103N, Y181C (A17)) | TI (TC50/IC50) (HIV-1Ba-L [3]) | IC50 (HIV-1Ba-L [3]; Human immunodeficiency virus 1) | CC50 at 48 h [4] | IC50 (HIV-1Ba-L [3]) | CC50 (MAGI-CCR5 cells) | effect of RT changes K103N and Y181C on anti-viral activity (HIV-1 K103N, Y181C (A17)) | IC50 [5, 10] | CC50 [6] | IC50 (HIV-1Ba-L [2]; HIV-1Ba-L in PBMCs, seven days, RT end-point) | IC50 ([5]; HIV RT biochemical assay, read-out: 5'LTR/dPR IC50) |
| --- | --- | --- | --- | --- | --- | --- | --- | --- | --- | --- | --- | --- | --- | --- | --- | --- | --- | --- | --- |
| CC1=C(c2nc(-c3ccc(C#N)cc3C)cs2)C(c2cc3ccccc3n2C)NC(=O)N1 (centres unmarked) [Example 87] | ≥ 100 µM | ≥ 100 µM | ≥ 100 µM | A (A = TI (TC50/IC50) ≧100.0) | < 1 µM | < 1 µM | A (A = TI (TC50/IC50) ≧ 100.0) | 5 to 100 µM | C (C < 50.0-10.0) | A (A = TI (TC50/IC50) ≧ 100.0) | < 1 µM | ≥ 100 µM | – | – | – | – | – | – | – |
| CC1=C(c2nc(-c3ccc(C#N)cc3)cs2)C(c2cnc3ccccc3n2)NC(=O)N1 (centres unmarked) [Example 21] | ≥ 100 µM | ≥ 100 µM | ≥ 100 µM | D (D < 10.0) | > 100 µM | > 100 µM | D (D < 10.0) | > 100 µM | D (D < 10.0) | D (D < 10.0) | > 100 µM | ≥ 100 µM | – | – | – | – | – | – | – |
| CC1=C(c2nc(-c3ccc(C#N)cc3C)cs2)C(c2cccnc2F)NC(=O)N1 (centres unmarked) [Example 86] | ≥ 100 µM | ≥ 100 µM | ≥ 100 µM | A (A = TI (TC50/IC50) ≧100.0) | < 1 µM | < 1 µM | A (A = TI (TC50/IC50) ≧ 100.0) | 5 to 100 µM | D (D < 10.0) | A (A = TI (TC50/IC50) ≧ 100.0) | – | – | < 1 µM | ≥ 100 µM | – | – | – | – | – |
| CC1=C(c2nc(-c3ccc(F)cc3)cs2)C(Cc2ccccc2)NC(=O)N1 (centres unmarked) [Example 89] | ≥ 100 µM | ≥ 100 µM | ≥ 100 µM | D (D < 10.0) | > 100 µM | 5 to 100 µM | D (D < 10.0) | > 100 µM | D (D < 10.0) | D (D < 10.0) | > 100 µM | ≥ 100 µM | – | – | – | – | – | – | – |
| CC1=C(c2nc(-c3ccc(C#N)cc3)cs2)C(c2ccc(F)nc2)NC(=O)N1 (centres unmarked) [Example 19] | ≥ 100 µM | ≥ 100 µM | ≥ 100 µM | A (A = TI (TC50/IC50) ≧100.0) | < 1 µM | < 1 µM | A (A = TI (TC50/IC50) ≧ 100.0) | > 100 µM | D (D < 10.0) | B (B < 100.0-50.0) | 1 to 5 µM | ≥ 100 µM | – | – | inhibit the anti-viral activity | – | – | – | – |
| CC1=C(c2nc(-c3ccc(C#N)cc3)cs2)C(c2cc3ccccc3n2C)NC(=O)N1 (centres unmarked) [Example 11] | ≥ 100 µM | ≥ 100 µM | ≥ 100 µM | A (A = TI (TC50/IC50) ≧100.0) | < 1 µM | < 1 µM | A (A = TI (TC50/IC50) ≧ 100.0) | > 100 µM | D (D < 10.0) | A (A = TI (TC50/IC50) ≧ 100.0) | < 1 µM | ≥ 100 µM | – | – | inhibit the anti-viral activity | – | – | – | – |
| CC1=C(c2nc(-c3ccc(C#N)cc3)cs2)C(c2cccc(O)c2)NC(=O)N1 (single isomer, unassigned) [Example 34 (enantiomer)] | – | – | ≥ 100 µM | D (D < 10.0) | – | 5 to 100 µM | – | – | – | – | – | – | – | – | – | > 100 µM | – | – | – |
| CC1=C(c2nc(-c3ccc(C#N)cc3)cs2)C(c2cccc(O)c2)NC(=O)N1 (centres unmarked) [Example 34] | – | – | 50 to 100 µM | A (A = TI (TC50/IC50) ≧100.0) | – | < 1 µM | – | – | – | A (A = TI (TC50/IC50) ≧ 100.0) | < 1 µM | ≥ 100 µM | – | – | – | < 1 µM | – | – | – |
| CC1=C(c2nc(-c3ccc(C#N)cc3)cs2)C(c2ccc(C(F)(F)F)nc2)NC(=O)N1 (centres unmarked) [Example 96] | ≥ 100 µM | ≥ 100 µM | ≥ 100 µM | A (A = TI (TC50/IC50) ≧100.0) | < 1 µM | < 1 µM | A (A = TI (TC50/IC50) ≧ 100.0) | 5 to 100 µM | D (D < 10.0) | A (A = TI (TC50/IC50) ≧ 100.0) | < 1 µM | ≥ 100 µM | – | – | – | – | – | – | – |
| Cc1ccnc2c1NC(=O)c1cccnc1N2C1CC1 [Nevirapine] | – | – | – | – | – | – | – | – | – | – | – | – | – | – | – | 0.29 µM and 0.19 µM | – | – | – |
| CC1=C(c2nc(-c3ccc(C#N)cc3)cs2)C(c2cc3ccccc3[nH]2)NC(=O)N1 (centres unmarked) [Example 10] | ≥ 100 µM | ≥ 100 µM | 50 to 100 µM | C (C < 50.0-10.0) | 1 to 5 µM | 1 to 5 µM | B (B < 100.0-50.0) | 5 to 100 µM | D (D < 10.0) | C (C < 50.0 to 10.0) | 1 to 5 µM | < 50 µM | – | – | – | – | – | – | – |
| Cc1ccc(-c2ccc3c(c2)C=C(C(=O)Nc2ccc(C[N+](C)(C)C4CCOCC4)cc2)CCC3)cc1.[Cl-] [TAK 779, reference compound] | – | – | – | >29.9 | – | – | – | – | – | 2902.7 | – | – | 0.004 µM | > 10 µM | – | – | > 10 µM | 0.35 µM | – |
| Cc1cn([C@H]2C[C@H](N=[N+]=[N-])[C@@H](COP(=O)(O)OP(=O)(O)OP(=O)(O)O)O2)c(=O)[nH]c1=O [AZT-TP] | – | – | – | – | – | – | – | – | – | – | – | – | – | – | – | – | – | – | 0.009 µM and 0.01 µM |
| CC1=C(c2nc(-c3ccc(C#N)cc3C)cs2)C(c2cccnc2F)NC(=O)N1 (centres unmarked) [Example 83] | – | – | – | – | – | – | – | – | – | B (B < 100.0-50.0) | – | – | < 1 µM | < 50 µM | – | – | – | – | – |
| Cc1cc(C#N)cc(C)c1Oc1nc(Nc2ccc(C#N)cc2)nc(N)c1Br [TMC-125, Etravirine, reference compound] | > 1 µM | > 1 µM | > 1 µM | >325.0 | – | – | >402.0 | 0.01 µM | >101.0 | >37,500.0 | 0.003 µM | > 100 µM | – | – | – | 0.19 µM | – | – | – |
| CC1=C(c2nc(-c3ccc(C#N)cc3)cs2)C(c2ccc(Br)nc2)NC(=O)N1 (centres unmarked) [Example 93] | ≥ 100 µM | ≥ 100 µM | ≥ 100 µM | A (A = TI (TC50/IC50) ≧100.0) | < 1 µM | < 1 µM | A (A = TI (TC50/IC50) ≧ 100.0) | > 100 µM | D (D < 10.0) | A (A = TI (TC50/IC50) ≧ 100.0) | < 1 µM | ≥ 100 µM | – | – | – | – | – | – | – |
